Key:
Type in all cases: in vivo
[1] = tested on: Alopecurus myosuroides (ALOMY); test: Pre-emergence biological efficacy, glasshouse, 1000 g/ha, evaluated after 13 days (100=total damage to plant; 0=no damage to plant); details: Alopecurus myosuroides, 312 h, rate 1,000 g/ha, read-out: Percentage damage caused to weed species, pre-emergence, ALOMY
How it was run: (§1)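 Sowing: standard soil, pots. Growth: glasshouse, 24/16° C. day/night, 14 hours light, 65% humidity. Watering: twice daily.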

[2] = tested on: Amaranthus retroflexus (AMARE); test: as above; details: Amaranthus retroflexus, 312 h, rate 1,000 g/ha, read-out: Percentage damage caused to weed species, pre-emergence, AMARE
How it was run: as §1

[3] = tested on: Echinochloa crus-galli (ECHCG); test: as above; details: Echinochloa crus-galli, 312 h, rate 1,000 g/ha, read-out: Percentage damage caused to weed species, pre-emergence, ECHCG
How it was run: as §1

[4] = tested on: Ipomoea hederaceae (IPOHE); test: as above; details: Ipomoea, 312 h, rate 1,000 g/ha, read-out: Percentage damage caused to weed species, pre-emergence, IPOHE
How it was run: as §1

[5] = tested on: Setaria faberi (SETFA); test: as above; details: Setaria faberi, 312 h, rate 1,000 g/ha, read-out: Percentage damage caused to weed species, pre-emergence, SETFA
How it was run: as §1

[6] = tested on: Solanum nigrum (SOLNI); test: as above; details: Solanum nigrum, 312 h, rate 1,000 g/ha, read-out: Percentage damage caused to weed species, pre-emergence, SOLNI
How it was run: as §1

[7] = tested on: Alopecurus myosuroides (ALOMY); test: Post-emergence biological efficacy, glasshouse, 500 or 1000 g/ha, evaluated after 13 days (100=total damage to plant; 0=no damage to plant); details: Alopecurus myosuroides, 312 h, rate 1,000 g/ha, read-out: Percentage damage caused to weed species, post-emergence, ALOMY
How it was run: (§2)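 Sow seeds in standard potting soil. Treat after emergence. Keep treated plants in the glasshouse at 24° C. by day and 16° C. by night, with a 14-hour photoperiod, 65% humidity and two waterings daily.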

[8] = tested on: Amaranthus retroflexus (AMARE); test: as above; details: Amaranthus retroflexus, 312 h, rate 1,000 g/ha, read-out: Percentage damage caused to weed species, post-emergence, AMARE
How it was run: as §2

[9] = tested on: Echinochloa crusgaffi (ECHCG); test: as above; details: Echinochloa, 312 h, rate 1,000 g/ha, read-out: Percentage damage caused to weed species, post-emergence, ECHCG
How it was run: as §2

[10] = tested on: Ipomoea hederaceae (IPOHE); test: as above; details: Ipomoea, 312 h, rate 1,000 g/ha, read-out: Percentage damage caused to weed species, post-emergence, IPOHE
How it was run: as §2

[11] = tested on: Setaria faberi (SETFA); test: as above; details: Setaria faberi, 312 h, rate 1,000 g/ha, read-out: Percentage damage caused to weed species, post-emergence, SETFA
How it was run: as §2

[12] = tested on: Solanum nigrum (SOLNI); test: as above; details: Solanum nigrum, 312 h, rate 1,000 g/ha, read-out: Percentage damage caused to weed species, post-emergence, SOLNI
How it was run: as §2

COC(=O)c1nc(-c2ccc(Cl)c(OC)c2F)nc2c1c(C)cn2Cc1ccc(C(F)(F)F)o1 [Compound 12-64]
pest or weed control at 1000 g/ha [1]: 0% | pest or weed control at 1000 g/ha [2]: 0% | pest or weed control at 1000 g/ha [3]: 0% | pest or weed control at 1000 g/ha [4]: 0% | pest or weed control at 1000 g/ha [5]: 0% | pest or weed control at 1000 g/ha [6]: 0% | pest or weed control at 1000 g/ha [7]: 10% | pest or weed control at 1000 g/ha [8]: 20% | pest or weed control at 1000 g/ha [9]: 10% | pest or weed control at 1000 g/ha [10]: 50% | pest or weed control at 1000 g/ha [11]: 30% | pest or weed control at 1000 g/ha [12]: 30%

O=C(O)c1nc(-c2ccc(Cl)c(F)c2)nc2c1ccn2Cc1ccccc1 [Compound 6-17, 4-Carboxy-2-(4-chloro-3-fluorophenyl)-7-phenylmethyl-7H-pyrrolo[2,3-d]pyrimidine]
pest or weed control at 1000 g/ha [1]: 0% | pest or weed control at 1000 g/ha [2]: 0% | pest or weed control at 1000 g/ha [3]: 0% | pest or weed control at 1000 g/ha [4]: 0% | pest or weed control at 1000 g/ha [5]: 0% | pest or weed control at 1000 g/ha [6]: 0% | pest or weed control at 1000 g/ha [7]: 0% | pest or weed control at 1000 g/ha [8]: 20% | pest or weed control at 1000 g/ha [9]: 0% | pest or weed control at 1000 g/ha [10]: 0% | pest or weed control at 1000 g/ha [11]: 0% | pest or weed control at 1000 g/ha [12]: 40%

O=C(O)c1nc(Cl)nc2[nH]ccc12 [Compound 1-121, 4-carboxy-2-chloro-7H-pyrrolo[2,3-d]pyrimidine]
pest or weed control at 1000 g/ha [1]: 0% | pest or weed control at 1000 g/ha [2]: 0% | pest or weed control at 1000 g/ha [3]: 0% | pest or weed control at 1000 g/ha [4]: 0% | pest or weed control at 1000 g/ha [5]: 0% | pest or weed control at 1000 g/ha [6]: 0% | pest or weed control at 1000 g/ha [7]: 0% | pest or weed control at 1000 g/ha [8]: 0% | pest or weed control at 1000 g/ha [9]: 0% | pest or weed control at 1000 g/ha [10]: 0% | pest or weed control at 1000 g/ha [11]: 0% | pest or weed control at 1000 g/ha [12]: 10%

COC(=O)c1nc(Cl)cc2[nH]ccc12 [Compound 22-122, 6-chloro-4-methoxycarbonyl-1H-pyrrolo[3,2-c]pyridine]
pest or weed control at 1000 g/ha [1]: 0% | pest or weed control at 1000 g/ha [2]: 0% | pest or weed control at 1000 g/ha [3]: 0% | pest or weed control at 1000 g/ha [4]: 0% | pest or weed control at 1000 g/ha [5]: 0% | pest or weed control at 1000 g/ha [6]: 0% | pest or weed control at 1000 g/ha [7]: 0% | pest or weed control at 1000 g/ha [8]: 60% | pest or weed control at 1000 g/ha [9]: 0% | pest or weed control at 1000 g/ha [10]: 10% | pest or weed control at 1000 g/ha [11]: 0% | pest or weed control at 1000 g/ha [12]: 20%

COC(=O)c1nc(-c2ccc(Cl)c(OC)c2F)nc2c1cc(C)n2CC1CC1 [Compound 5-66, 2-(4-Chloro-2-fluoro-3-methoxyphenyl)-7-cyclopropylmethyl-4-methoxycarbonyl-6-methyl-7H-pyrrolo[2,3-d]pyrimidine]
pest or weed control at 1000 g/ha [1]: 0% | pest or weed control at 1000 g/ha [2]: 0% | pest or weed control at 1000 g/ha [3]: 0% | pest or weed control at 1000 g/ha [4]: 0% | pest or weed control at 1000 g/ha [5]: 0% | pest or weed control at 1000 g/ha [6]: 0% | pest or weed control at 1000 g/ha [7]: 10% | pest or weed control at 1000 g/ha [8]: 0% | pest or weed control at 1000 g/ha [9]: 10% | pest or weed control at 1000 g/ha [10]: 0% | pest or weed control at 1000 g/ha [11]: 20% | pest or weed control at 1000 g/ha [12]: 20%

CCCCOCCOC(=O)c1nc(-c2ccc(Cl)c(OC)c2F)nc2[nH]cc(C)c12 [Compound 1-83, 4-[(2-n-Butoxy)-ethoxycarbonyl]-2-(4-chloro-2-fluoro-3-methoxyphenyl)-5-methy-7H-pyrrolo[2,3-d]pyrimidine]
pest or weed control at 1000 g/ha [1]: 0% | pest or weed control at 1000 g/ha [2]: 40% | pest or weed control at 1000 g/ha [3]: 0% | pest or weed control at 1000 g/ha [4]: 20% | pest or weed control at 1000 g/ha [5]: 0% | pest or weed control at 1000 g/ha [6]: 30% | pest or weed control at 1000 g/ha [7]: 0% | pest or weed control at 1000 g/ha [8]: 70% | pest or weed control at 1000 g/ha [9]: 10% | pest or weed control at 1000 g/ha [10]: 40% | pest or weed control at 1000 g/ha [11]: 10% | pest or weed control at 1000 g/ha [12]: 70%

— patent publication US20120202690A1, “HERBICIDAL COMPOUNDS” (SYNGENTA LIMITED, priority 2009, published 2012)
